Legend:
human MC4 receptor = biological target: T1, human MC4 receptor (Homo sapiens, UniProt P32245); assay: [125I]-NDP-MSH radio-ligand binding, MC4 (h) receptor (recombinant CHO cells); settings: 120 min/37° C.
T1 construct: expressed in transfected cells; host or cells: CHO cells
Procedure: (§1) Determination of binding affinities for MC receptors was performed by [^125I]-[Nle4,D-Phe7]α-MSH ([^125I]-NDP-MSH) radio-ligand binding. In short, murine B16-F1 melanoma cells expressing MC1, but not other MC receptors, were used for binding affinity studies against the murine MC1 receptor (Siegrist et al.; 1988, J. Recept. Res., 8(1-4):323-43). For human MC3, MC4 and MC5 receptor affinities human recombinant CHO cells were used (Schioth et al. 1997, Neuropeptides 31:565-71, 1997). Cells were suspended in HEPES buffer and by use of microwell plates radio-ligands, as well as test compound, in the concentration range of 10^−10 to 10^−6 were added. After incubation at 37° C. (22° C. for the MC1 receptor assay) separation of bound and free [^125I]-NDP-MSH was done by multiple washings with buffer.
(§2) The results were expressed as a percent of control specific binding obtained in the presence of the test compounds. The IC50 values (concentration causing a half-maximal inhibition of control specific binding) and Hill coefficients (nH) were determined by non-linear regression analysis of the competition curves using Hill equation curve fitting. The inhibition constants (Ki) were calculated from the Cheng Prusoff equation (Ki=IC50/(1+(L/KD)), where L=concentration of radio-ligand in the assay, and KD=affinity of the radio-ligand for the receptor).

murine MC1 receptor = biological target: T2, murine MC1 receptor (Mus musculus, UniProt Q01727); assay: [125I]-NDP-MSH radio-ligand binding, MC1 receptor (B16-F1 melanoma cells); settings: 90 min/22° C.
T2 construct: murine B16-F1 melanoma cells expressing MC1, but not other MC receptors, were used; endogenous in cells; host or cells: murine B16-F1 melanoma cells
Procedure: as §1, §2

human MC5 receptor = biological target: T3, human MC5 receptor (Homo sapiens, UniProt P33032); assay: [125I]-NDP-MSH radio-ligand binding, MC5 (h) receptor (recombinant CHO cells); settings: 60 min/37° C.
T3 construct: expressed in transfected cells; host or cells: CHO cells
Procedure: as §1, §2

human MC3 receptor = biological target: T4, human MC3 receptor (Homo sapiens, UniProt P41968); assay: [125I]-NDP-MSH radio-ligand binding, MC3 (h) receptor (recombinant CHO cells); settings: 60 min/37° C.
T4 construct: expressed in transfected cells; host or cells: CHO cells
Procedure: as §1, §2

Measured: Ki

T2 sequence (Q01727 whole entry): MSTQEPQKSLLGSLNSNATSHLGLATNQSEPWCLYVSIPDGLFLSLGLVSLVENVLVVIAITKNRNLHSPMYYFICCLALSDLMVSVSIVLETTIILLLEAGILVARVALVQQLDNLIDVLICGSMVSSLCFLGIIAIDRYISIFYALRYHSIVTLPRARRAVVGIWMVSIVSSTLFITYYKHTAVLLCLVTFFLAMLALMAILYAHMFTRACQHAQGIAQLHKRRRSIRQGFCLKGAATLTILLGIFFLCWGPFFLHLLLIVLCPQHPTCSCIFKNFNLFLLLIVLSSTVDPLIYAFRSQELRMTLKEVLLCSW
T4 sequence (P41968 whole entry): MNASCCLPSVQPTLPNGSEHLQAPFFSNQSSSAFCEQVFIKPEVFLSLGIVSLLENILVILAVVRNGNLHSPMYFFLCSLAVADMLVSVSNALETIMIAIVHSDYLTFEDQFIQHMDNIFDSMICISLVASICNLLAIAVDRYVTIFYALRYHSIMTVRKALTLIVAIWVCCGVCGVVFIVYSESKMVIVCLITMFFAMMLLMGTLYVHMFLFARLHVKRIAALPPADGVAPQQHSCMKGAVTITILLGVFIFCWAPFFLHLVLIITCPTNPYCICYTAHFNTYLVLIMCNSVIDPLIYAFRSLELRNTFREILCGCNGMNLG
T3 sequence (P33032 whole entry): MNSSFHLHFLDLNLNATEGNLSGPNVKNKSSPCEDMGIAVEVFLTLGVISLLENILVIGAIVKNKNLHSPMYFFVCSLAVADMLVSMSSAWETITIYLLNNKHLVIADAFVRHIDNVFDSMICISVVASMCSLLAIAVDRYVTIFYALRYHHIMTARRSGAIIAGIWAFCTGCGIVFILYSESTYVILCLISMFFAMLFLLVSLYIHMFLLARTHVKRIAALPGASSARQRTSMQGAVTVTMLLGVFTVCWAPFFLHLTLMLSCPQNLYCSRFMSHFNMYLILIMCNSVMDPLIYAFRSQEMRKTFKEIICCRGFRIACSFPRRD
T1 sequence (P32245 whole entry): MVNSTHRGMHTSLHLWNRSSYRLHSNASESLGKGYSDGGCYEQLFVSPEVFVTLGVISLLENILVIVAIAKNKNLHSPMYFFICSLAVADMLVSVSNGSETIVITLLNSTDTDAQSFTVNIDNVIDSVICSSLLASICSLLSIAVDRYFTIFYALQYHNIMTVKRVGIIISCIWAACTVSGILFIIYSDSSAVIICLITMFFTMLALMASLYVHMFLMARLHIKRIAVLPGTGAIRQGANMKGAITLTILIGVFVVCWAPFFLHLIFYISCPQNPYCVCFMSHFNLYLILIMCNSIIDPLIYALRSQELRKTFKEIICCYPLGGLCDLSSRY

N=C(N)NN=Cc1cccn1-c1ccccc1[N+](=O)[O-] [Reference-compound 2, [1-[2-nitrophenyl)-1H-pyrrol-2-yl-methyleneamino]guanidinium acetate, reference compound]
> 1000 nM: all assays above

N=C(N)NN=Cc1cccn1-c1ccc(Cl)cc1 [Reference-compound 1, [1-[4-chlorophenyl)-1H-pyrrol-2-yl-methyleneamino]guanidinium acetate, reference compound]
> 1000 nM: all assays above
